In US5530126A, “Process for the preparation of substituted 6-(pyrazol-3yl)-1,4-benzoxazin-3-ones” (Monsanto Company, priority 1994, dated 1996):

How the values were obtained:
Type in all cases: in vivo
Yellow nutsedge [1] = experiment: Pre-emergence herbicide test; settings: Cyperus, read-out: % plant inhibition (Yens); for inhibition at 1120 g/ha: 1.12 kg/ha; for inhibition at 11210 g/ha: 11.21 kg/ha
Procedure, shortened: (§1)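 Greenhouse pans: topsoil compacted to within 0.95-1.27 cm of top, seeds laid on surface, active ingredient (organic solvent or water carrier) applied, untreated topsoil cover added. Watered from below; % inhibition at ~11 d.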

Annual bluegrass [2] = experiment: Pre-emergence herbicide test; settings: read-out: % plant inhibition (Anbg); for inhibition at 1120 g/ha: 1.12 kg/ha; for inhibition at 11210 g/ha: 11.21 kg/ha
Procedure, shortened: as §1

Downy Brome [3] = experiment: Pre-emergence herbicide test; settings: Bromus tectorum, read-out: % plant inhibition (Dobr); for inhibition at 1120 g/ha: 1.12 kg/ha; for inhibition at 11210 g/ha: 11.21 kg/ha
Procedure, shortened: as §1

Morningglory [4] = experiment: Pre-emergence herbicide test; settings: Ipomoea, read-out: % plant inhibition (Mogl); for inhibition at 1120 g/ha: 1.12 kg/ha; for inhibition at 11210 g/ha: 11.21 kg/ha
Procedure, shortened: as §1

Wild buckwheat [5] = experiment: Pre-emergence herbicide test; settings: Fallopia convolvulus, read-out: % plant inhibition (Wibw); for inhibition at 1120 g/ha: 1.12 kg/ha; for inhibition at 11210 g/ha: 11.21 kg/ha
Procedure, shortened: as §1

Velvetleaf [6] = experiment: Pre-emergence herbicide test; settings: Abutilon theophrasti, read-out: % plant inhibition (Vele); for inhibition at 1120 g/ha: 1.12 kg/ha; for inhibition at 11210 g/ha: 11.21 kg/ha
Procedure, shortened: as §1

Seedling johnsongrass [7] = experiment: Pre-emergence herbicide test; settings: Sorghum halepense, read-out: % plant inhibition (Sejg); for inhibition at 1120 g/ha: 1.12 kg/ha; for inhibition at 11210 g/ha: 11.21 kg/ha
Procedure, shortened: as §1

Indian Mustard [8] = experiment: Pre-emergence herbicide test; settings: Brassica juncea, read-out: % plant inhibition (Inmu); for inhibition at 1120 g/ha: 1.12 kg/ha; for inhibition at 11210 g/ha: 11.21 kg/ha
Procedure, shortened: as §1

Cocklebur [9] = experiment: Pre-emergence herbicide test; settings: Xanthium strumarium, read-out: % plant inhibition (Cobu); for inhibition at 1120 g/ha: 1.12 kg/ha; for inhibition at 11210 g/ha: 11.21 kg/ha
Procedure, shortened: as §1

Barnyardgrass [10] = experiment: Pre-emergence herbicide test; settings: Echinochloa crus-galli, read-out: % plant inhibition (Bygr); for inhibition at 1120 g/ha: 1.12 kg/ha; for inhibition at 11210 g/ha: 11.21 kg/ha
Procedure, shortened: as §1

Yellow nutsedge [11] = experiment: Post-emergence herbicide test; settings: Cyperus, read-out: % plant inhibition (Yens); for inhibition at 1120 g/ha: 1.12 kg/ha; for inhibition at 11210 g/ha: 11.21 kg/ha
Procedure, shortened: (§2)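 Greenhouse-raised seedlings and perennial propagule shoots, aged 2–3 weeks, receive an atomized spray at 10 psig. The solution or suspension carries roughly 0.4% emulsifier and is applied at 200 gallons/acre; injury is rated as % inhibition after about 11 days.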

Annual bluegrass [12] = experiment: Post-emergence herbicide test; settings: read-out: % plant inhibition (Anbg); for inhibition at 1120 g/ha: 1.12 kg/ha; for inhibition at 11210 g/ha: 11.21 kg/ha
Procedure, shortened: as §2

Downy Brome [13] = experiment: Post-emergence herbicide test; settings: Bromus tectorum, read-out: % plant inhibition (Dobr); for inhibition at 1120 g/ha: 1.12 kg/ha; for inhibition at 11210 g/ha: 11.21 kg/ha
Procedure, shortened: as §2

Morningglory [14] = experiment: Post-emergence herbicide test; settings: Ipomoea, read-out: % plant inhibition (Mogl); for inhibition at 1120 g/ha: 1.12 kg/ha; for inhibition at 11210 g/ha: 11.21 kg/ha
Procedure, shortened: as §2

Wild buckwheat [15] = experiment: Post-emergence herbicide test; settings: Fallopia convolvulus, read-out: % plant inhibition (Wibw); for inhibition at 1120 g/ha: 1.12 kg/ha; for inhibition at 11210 g/ha: 11.21 kg/ha
Procedure, shortened: as §2

Velvetleaf [16] = experiment: Post-emergence herbicide test; settings: Abutilon theophrasti, read-out: % plant inhibition (Vele); for inhibition at 1120 g/ha: 1.12 kg/ha; for inhibition at 11210 g/ha: 11.21 kg/ha
Procedure, shortened: as §2

Seedling johnsongrass [17] = experiment: Post-emergence herbicide test; settings: Sorghum halepense, read-out: % plant inhibition (Sejg); for inhibition at 1120 g/ha: 1.12 kg/ha; for inhibition at 11210 g/ha: 11.21 kg/ha
Procedure, shortened: as §2

Indian Mustard [18] = experiment: Post-emergence herbicide test; settings: Brassica juncea, read-out: % plant inhibition (Inmu); for inhibition at 1120 g/ha: 1.12 kg/ha; for inhibition at 11210 g/ha: 11.21 kg/ha
Procedure, shortened: as §2

Cocklebur [19] = experiment: Post-emergence herbicide test; settings: Xanthium strumarium, read-out: % plant inhibition (Cobu); for inhibition at 1120 g/ha: 1.12 kg/ha; for inhibition at 11210 g/ha: 11.21 kg/ha
Procedure, shortened: as §2

Barnyardgrass [20] = experiment: Post-emergence herbicide test; settings: Echinochloa crus-galli, read-out: % plant inhibition (Bygr); for inhibition at 1120 g/ha: 1.12 kg/ha; for inhibition at 11210 g/ha: 11.21 kg/ha
Procedure, shortened: as §2

Compound: CCS(=O)(=O)Nc1cc(-c2nn(C)c(C(F)(F)F)c2Cl)c(Cl)cc1Cl [Compound 92]
- inhibition at 1120 g/ha (Yellow nutsedge [1]): 0%
- inhibition at 1120 g/ha (Annual bluegrass [2]): 0%
- inhibition at 1120 g/ha (Downy Brome [3]): 0%
- inhibition at 1120 g/ha (Morningglory [4]): 80%
- inhibition at 1120 g/ha (Wild buckwheat [5]): 80%
- inhibition at 1120 g/ha (Velvetleaf [6]): 90%
- inhibition at 1120 g/ha (Seedling johnsongrass [7]): 0%
- inhibition at 1120 g/ha (Indian Mustard [8]): 20%
- inhibition at 1120 g/ha (Cocklebur [9]): 20%
- inhibition at 1120 g/ha (Barnyardgrass [10]): 0%
- inhibition at 1120 g/ha (Yellow nutsedge [11]): 20%
- inhibition at 1120 g/ha (Annual bluegrass [12]): 30%
- inhibition at 1120 g/ha (Downy Brome [13]): 50%
- inhibition at 1120 g/ha (Morningglory [14]): 100%
- inhibition at 1120 g/ha (Wild buckwheat [15]): 80%
- inhibition at 1120 g/ha (Velvetleaf [16]): 100%
- inhibition at 1120 g/ha (Seedling johnsongrass [17]): 40%
- inhibition at 1120 g/ha (Indian Mustard [18]): 80%
- inhibition at 1120 g/ha (Cocklebur [19]): 80%
- inhibition at 1120 g/ha (Barnyardgrass [20]): 30%

Compound: CCOC(=O)c1cc(-c2nn(C)c(C(F)(F)F)c2Cl)c(F)cc1Cl [Compound 148, 2-Chloro-5-(4-chloro-1-methyl-5-(trifluoromethyl)-1H-pyrazol-3-yl)-4-fluorobenzoic acid, ethyl ester]
- inhibition at 1120 g/ha (Yellow nutsedge [1]): 0%
- inhibition at 1120 g/ha (Annual bluegrass [2]): 70%
- inhibition at 1120 g/ha (Downy Brome [3]): 80%
- inhibition at 1120 g/ha (Morningglory [4]): 100%
- inhibition at 1120 g/ha (Wild buckwheat [5]): 100%
- inhibition at 1120 g/ha (Velvetleaf [6]): 100%
- inhibition at 1120 g/ha (Seedling johnsongrass [7]): 50%
- inhibition at 1120 g/ha (Indian Mustard [8]): 100%
- inhibition at 1120 g/ha (Cocklebur [9]): 90%
- inhibition at 1120 g/ha (Barnyardgrass [10]): 90%
- inhibition at 1120 g/ha (Yellow nutsedge [11]): 20%
- inhibition at 1120 g/ha (Annual bluegrass [12]): 100%
- inhibition at 1120 g/ha (Downy Brome [13]): 100%
- inhibition at 1120 g/ha (Morningglory [14]): 100%
- inhibition at 1120 g/ha (Wild buckwheat [15]): 100%
- inhibition at 1120 g/ha (Velvetleaf [16]): 100%
- inhibition at 1120 g/ha (Seedling johnsongrass [17]): 100%
- inhibition at 1120 g/ha (Indian Mustard [18]): 100%
- inhibition at 1120 g/ha (Cocklebur [19]): 100%
- inhibition at 1120 g/ha (Barnyardgrass [20]): 100%

Compound: Cn1nc(-c2cc(N3CCOCC3)c(Cl)cc2F)c(Cl)c1C(F)(F)F [Compound 99]
- inhibition at 11210 g/ha (Yellow nutsedge [1]): 30%
- inhibition at 11210 g/ha (Annual bluegrass [2]): 80%
- inhibition at 11210 g/ha (Downy Brome [3]): 100%
- inhibition at 11210 g/ha (Morningglory [4]): 90%
- inhibition at 11210 g/ha (Wild buckwheat [5]): 100%
- inhibition at 11210 g/ha (Velvetleaf [6]): 100%
- inhibition at 11210 g/ha (Seedling johnsongrass [7]): 90%
- inhibition at 11210 g/ha (Indian Mustard [8]): 100%
- inhibition at 11210 g/ha (Cocklebur [9]): 80%
- inhibition at 11210 g/ha (Barnyardgrass [10]): 90%
- inhibition at 11210 g/ha (Yellow nutsedge [11]): 10%
- inhibition at 11210 g/ha (Annual bluegrass [12]): 100%
- inhibition at 11210 g/ha (Downy Brome [13]): 90%
- inhibition at 11210 g/ha (Morningglory [14]): 100%
- inhibition at 11210 g/ha (Wild buckwheat [15]): 100%
- inhibition at 11210 g/ha (Velvetleaf [16]): 100%
- inhibition at 11210 g/ha (Seedling johnsongrass [17]): 100%
- inhibition at 11210 g/ha (Indian Mustard [18]): 100%
- inhibition at 11210 g/ha (Cocklebur [19]): 90%
- inhibition at 11210 g/ha (Barnyardgrass [20]): 100%

Compound: CNC(=O)Cc1cc(-c2nn(C)c(C(F)(F)F)c2Cl)c(F)cc1Cl [Compound 114]
- inhibition at 11210 g/ha (Yellow nutsedge [1]): 90%
- inhibition at 11210 g/ha (Annual bluegrass [2]): 100%
- inhibition at 11210 g/ha (Downy Brome [3]): 60%
- inhibition at 11210 g/ha (Morningglory [4]): 100%
- inhibition at 11210 g/ha (Wild buckwheat [5]): 100%
- inhibition at 11210 g/ha (Velvetleaf [6]): 100%
- inhibition at 11210 g/ha (Seedling johnsongrass [7]): 90%
- inhibition at 11210 g/ha (Indian Mustard [8]): 100%
- inhibition at 11210 g/ha (Cocklebur [9]): 70%
- inhibition at 11210 g/ha (Barnyardgrass [10]): 100%
- inhibition at 11210 g/ha (Yellow nutsedge [11]): 10%
- inhibition at 11210 g/ha (Annual bluegrass [12]): 10%
- inhibition at 11210 g/ha (Downy Brome [13]): 0%
- inhibition at 11210 g/ha (Morningglory [14]): 50%
- inhibition at 11210 g/ha (Wild buckwheat [15]): 60%
- inhibition at 11210 g/ha (Velvetleaf [16]): 50%
- inhibition at 11210 g/ha (Seedling johnsongrass [17]): 0%
- inhibition at 11210 g/ha (Indian Mustard [18]): 10%
- inhibition at 11210 g/ha (Cocklebur [19]): 20%
- inhibition at 11210 g/ha (Barnyardgrass [20]): 0%
